These results are taken from publication PMC9421656, “Beyond Retigabine: Design, Synthesis, and Pharmacological Characterization of a Potent and Chemically Stable Neuronal Kv7 Channel Activator with Anticonvulsant Activity” (Journal of Medicinal Chemistry, 2022).

A short description of data set [1]: Plasma concentration-time course and half-life in rats. The note with it: Sprague-Dawley, rat, in vivo, ip, 3 mg/kg.
Description: (§1) The drug half-lives were calculated using GraphPad Prism 8.0.2 (GraphPad Software, LaJolla, CA).
(§2) Returning to 40% B in 0.10 min. The flow rate was set at 0.5 mL/min. The column oven was set at 45 °C, and 5 μL of extract was injected. All additives and mobile phases were LCMS-grade and purchased from Merck (Milan, Italy).
(§3) The ESI was operated in positive mode. […] Interface temperature, desolvation line temperature, and heat block temperature were set, respectively, to 250, 250, and 350 °C. Nebulizing, drying (N2), and heating gas (air) were set, respectively, to 3, 10, and 10 L/min.
For another data set, the target named is T1, Kv7.4 channels (Homo sapiens, UniProt P56696).
T1 construct: expressed in transfected cells; host or cells: CHO cells
Description: Whole-cell patch-clamp electrophysiology in CHO cells expressing Kv7.4. It counts as cell-based. The note with it: 0.1 μM, Kv7.4 currents. How it is done:
In order to evaluate the effects of compound 60 on other Kv7 channels, its ability to activate Kv7.4 channels expressed in CHO cells was also investigated. […]. During the recording, constant perfusion of extracellular solution was maintained. The extracellular solution contained (in mM): 138 NaCl, 2 CaCl2, 5.4 KCl, 1 MgCl2, 10 glucose, and 10 HEPES, at pH 7.4, with NaOH. The pipette (intracellular) solution contained (in mM): 140 KCl, 2 MgCl2, 10 EGTA, 10 HEPES, 5 Mg^2+-ATP, at pH 7.3–7.4, with KOH. Current was recorded using an Axopatch-200A amplifier, filtered at 5 kHz, and digitized using a DigiData 1440A (Molecular Devices). The pCLAMP software (version 10.2) was used for data acquisition and analysis (Molecular Devices). To evaluate the activity of each compound on Kv7.2 + Kv7.3 currents, the cells were clamped at −80 mV and conductance–voltage curves (G/V curves; activation curves) were generated by normalizing to the maximal value of the instantaneous isopotential currents at 0 mV and expressing the normalized values as a function of the preceding voltages. Data were fit to a Boltzmann distribution of the following form: y = max/[1 + exp (V1/2 – V)/k], where V is the test potential, V1/2 is the half-activation potential, and k is the slope factor.
In general terms: The patch-clamp technique gives a direct electrical read-out from membranes.

Data set [2] in a line: Chemical stability in aqueous buffer without light exposure. It counts as physicochemical. The note with it: 3 h, avoiding UV light exposure. As for the experimental part:
[…]. The reduced electron availability at N2 and N4 due to the presence of fluorine atom in position 3 of compound 60 strongly reduces also the first photo-oxidative step, thus conferring remarkable photostability.
Photostability experiments were performed by dissolving compounds in DMSO and then diluting in buffered aqueous solutions at pH 7.4 to a final concentration of 10 μM. 1 cm quartz cells, filled with the abovementioned solutions, were irradiated by a UV lamp (UV Consulting TQ 150 equipped with Duran 50 sleeve and 150 W power supply unit, Peschl, Germany) at a fixed distance of 20 cm from the UV source. Control samples were maintained at 37 °C, wrapped with aluminum foil to avoid light exposure, and used to assess chemical stability of the compounds. At predetermined intervals, aliquots were withdrawn and analyzed by UHPLC in order to assess the concentration decrease of the starting materials and the presence of the dimers usually formed by retigabine.
Photostability and chemical stability experiments were carried out on a Kinetex^TM C18 150 × 2.1 mm × 2.6 μm (100 Å) column (Phenomenex, Bologna, Italy). […] Data acquisition was set in the range 190–800 nm, and chromatograms were monitored at 224 nm to assess the decrease in concentration of the starting material, while a wavelength of 550 nm was used to eventually detect dimerization.

Another data set is described as follows: in vivo. The note with it: Sprague-Dawley, rat, ip, 0.3 mg/kg.
The target of another data set is Kv7.2/Kv7.3 channels (Homo sapiens, UniProt O43525+O43526). Briefly: Whole-cell patch-clamp electrophysiology in CHO cells expressing Kv7.2/Kv7.3. It counts as cell-based. Further details: expressed in transfected cells; host or cells: CHO cells, transient transfection (pcDNA3.1, Lipofectamine 2000). The note with it: for EC50: dose-response 0.01–30 μM. As for the experimental part:
Channel subunits were expressed in Chinese hamster ovary (CHO) cells by transient transfection, using plasmids containing cDNAs encoding human Kv7.2 and/or Kv7.3, all cloned in the pcDNA3.1 vector. According to the experimental protocol, these plasmids were expressed individually or in combination, together with a plasmid-expressing enhanced green fluorescent protein (Clontech, Palo Alto, CA) used as a transfection marker. Total cDNA in the transfection mixture was kept at 4 μg. CHO cells were grown in 100 mm plastic Petri dishes in Dulbecco’s modified Eagle’s medium containing 10% fetal bovine serum, nonessential amino acids (0.1 mM), penicillin (50 U/mL), and streptomycin ([…]) in a humidified atmosphere at 37 °C with 5% CO2.
Currents from CHO cells were recorded at room temperature (20–22 °C) using the whole-cell configuration of the patch-clamp technique, with glass micropipettes of 3–5 MΩ resistance. During the recording, constant perfusion of extracellular solution was maintained. […] The pipette (intracellular) solution contained (in mM): 140 KCl, 2 MgCl2, 10 EGTA, 10 HEPES, 5 Mg^2+-ATP, at pH 7.3–7.4, with KOH. […] To evaluate the activity of each compound on Kv7.2 + Kv7.3 currents, the cells were clamped at −80 mV and conductance–voltage curves (G/V curves; activation curves) were generated by normalizing to the maximal value of the instantaneous isopotential currents at 0 mV and expressing the normalized values as a function of the preceding voltages. Data were fit to a Boltzmann distribution of the following form: y = max/[1 + exp (V1/2 – V)/k], where V is the test potential, V1/2 is the half-activation potential, and k is the slope factor.
Indicated EC50 values are the mean of at least three independent experiments ± standard error of the mean (SEM).
Statistically significant differences in electrophysiological data were evaluated with the Student t test or with ANOVA followed by the Student–Newman–Keuls test when multiple groups were compared, with the threshold set at p < 0.05. […] Values are expressed as the […] mean ± standard error of the mean (SEM) of at least three cells recorded in at least three independent transfections.

Read-outs that look alike come from different tables or passages of the source.

Description for in vivo: as §1, §2, §3

One may read the half-life as how long it takes for the measured level to halve. In turn, `CCOC(=O)Nc1ccc(NCc2ccc(F)cc2)cc1N` [RET, retigabine] gave a half-life in data set [1] of 2.4 h.

As for `CC(C)(C)CC(=O)Nc1ccc(NCc2ccc(C(F)(F)F)cc2)c(F)c1N` [compound 60, N-(2-Amino-3-fluoro-4-((4-(trifluoromethyl)benzyl)amino)phenyl)-3,3-dimethylbutanamide], on Kv7.4 channels, the Idrug/Icontrol was found to be 2.5 ± 0.3 and the ΔV1/2 is reported as −29.2 ± 4.4 mV. Also, the Chemical stability entry in data set [2] is on record as “showed chemical stability”. In “in vivo”, this compound yielded a concentration at 0.5 h of 9 ng/mL, a concentration at 2 h of 8.7 ng/mL, a concentration at 4 h of 6.8 ng/mL and a concentration at 8 h of 5.4 ng/mL. Besides, in “in vivo”, the concentration at 24 h came out at 0 ng/mL and the half-life is 16.9 h. Also, at Kv7.2/Kv7.3 channels, the “Potency relative to RL-81” value was “about twice more potent than RL-81”. Moreover, at Kv7.2/Kv7.3 channels (1 μM), the “Leftward shift in V1/2 (ΔV1/2)” value was roughly 50 mV. Moreover, on Kv7.2/Kv7.3 channels (calculated at +20 mV), the “Idrug/Icontrol (maximal current density)” value is given as 2.1 ± 0.3. In addition, on Kv7.2/Kv7.3 channels (current at +20 mV, read-out: Maximal currents EC50), the EC50 was determined as 60 ± 10 nM. Besides, the EC50 at Kv7.2/Kv7.3 channels (read-out: ΔV1/2 EC50) amounted to 150 ± 30 nM. Further, the “Potency over retigabine as Kv7.2/Kv7.3 activator (fold/times)” value at Kv7.2/Kv7.3 channels (from ΔV1/2 EC50) was determined as 16.
